Measurements reported in ChEMBL document CHEMBL4814005, “Pragmatic recruitment of memantine as the capping group for the design of HDAC inhibitors: A preliminary attempt to unravel the enigma of glioblastoma” (Eur J Med Chem, 2021).
pIC50: −log10 of the molar value. Calls of active or inactive are those of the source. The calls are words filed in the database; no cut-off is given here.

Key:
[1] = Permeability of compound by PAMPA-BBB assay
U-87 MG [2] = experiment: Antiproliferation activity against human U-87 MG cells assessed as growth inhibition measured after 1 hr by MTT assay; type: functional, cell-based, U-87MG ATCC
U-87 MG [3] = experiment: Antiproliferation activity against human U-87 MG cells assessed as growth inhibition at 10 uM after 3 days by MTT assay; type: functional, U-87MG ATCC; conditions: 72 h, time 3 day
Histone deacetylase 1 = Histone deacetylase 1 (Homo sapiens, UniProt Q13547); experiment: Inhibition of human recombinant HDAC1 expressed in baculovirus infected insect cells using [RHKK(Ac)] fluorogenic substrate
Sequence of Histone deacetylase 1 (Q13547 whole entry): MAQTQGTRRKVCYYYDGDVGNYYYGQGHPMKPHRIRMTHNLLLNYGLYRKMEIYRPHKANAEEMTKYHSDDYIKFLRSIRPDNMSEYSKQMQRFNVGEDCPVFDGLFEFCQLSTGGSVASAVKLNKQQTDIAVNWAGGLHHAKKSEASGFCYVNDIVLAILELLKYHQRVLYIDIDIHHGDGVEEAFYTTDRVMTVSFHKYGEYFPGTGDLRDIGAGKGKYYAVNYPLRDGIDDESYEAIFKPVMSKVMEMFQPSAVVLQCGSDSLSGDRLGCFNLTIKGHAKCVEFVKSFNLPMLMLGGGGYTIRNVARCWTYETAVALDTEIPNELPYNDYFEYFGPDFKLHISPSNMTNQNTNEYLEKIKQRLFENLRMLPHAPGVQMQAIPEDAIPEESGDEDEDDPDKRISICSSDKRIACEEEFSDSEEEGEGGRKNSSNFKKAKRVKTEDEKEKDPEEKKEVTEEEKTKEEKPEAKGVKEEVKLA

[4] = target: T1, Protein deacetylase HDAC6 (Homo sapiens, UniProt Q9UBN7); experiment: Inhibition of human recombinant HDAC6 expressed in baculovirus infected insect cells using [RHKK(Ac)] fluorogenic substrate
T1 sequence (Q9UBN7 whole entry): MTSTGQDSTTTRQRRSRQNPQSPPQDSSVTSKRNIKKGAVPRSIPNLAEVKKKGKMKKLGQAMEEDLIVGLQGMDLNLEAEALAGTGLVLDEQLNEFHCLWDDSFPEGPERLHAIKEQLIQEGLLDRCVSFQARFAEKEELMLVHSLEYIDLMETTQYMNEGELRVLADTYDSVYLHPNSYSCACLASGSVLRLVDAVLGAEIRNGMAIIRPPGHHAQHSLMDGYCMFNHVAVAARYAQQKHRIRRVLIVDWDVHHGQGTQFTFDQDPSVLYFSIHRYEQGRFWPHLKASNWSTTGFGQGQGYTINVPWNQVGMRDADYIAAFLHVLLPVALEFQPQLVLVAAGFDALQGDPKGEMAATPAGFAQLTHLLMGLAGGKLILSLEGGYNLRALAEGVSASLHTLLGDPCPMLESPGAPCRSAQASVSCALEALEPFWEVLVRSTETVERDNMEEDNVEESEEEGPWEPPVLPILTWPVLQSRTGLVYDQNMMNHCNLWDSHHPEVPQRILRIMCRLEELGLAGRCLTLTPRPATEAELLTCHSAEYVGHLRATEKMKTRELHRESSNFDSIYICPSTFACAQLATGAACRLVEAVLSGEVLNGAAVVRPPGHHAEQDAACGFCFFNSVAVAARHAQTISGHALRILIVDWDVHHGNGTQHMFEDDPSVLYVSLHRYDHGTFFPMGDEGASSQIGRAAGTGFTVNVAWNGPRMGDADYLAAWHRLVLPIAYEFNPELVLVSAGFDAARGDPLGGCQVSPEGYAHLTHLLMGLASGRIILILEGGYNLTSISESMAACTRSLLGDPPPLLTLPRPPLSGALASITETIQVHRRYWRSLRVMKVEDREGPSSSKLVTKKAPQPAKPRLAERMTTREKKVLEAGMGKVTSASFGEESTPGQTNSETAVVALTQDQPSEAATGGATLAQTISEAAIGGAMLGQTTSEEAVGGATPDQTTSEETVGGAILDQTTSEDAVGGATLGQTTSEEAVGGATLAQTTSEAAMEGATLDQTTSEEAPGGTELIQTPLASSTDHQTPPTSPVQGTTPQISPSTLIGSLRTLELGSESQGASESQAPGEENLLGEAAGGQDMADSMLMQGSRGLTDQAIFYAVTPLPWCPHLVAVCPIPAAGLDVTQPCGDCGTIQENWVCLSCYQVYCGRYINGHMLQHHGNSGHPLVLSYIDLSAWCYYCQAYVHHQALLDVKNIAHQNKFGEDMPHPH

Histone deacetylase 8 = target: T2, Histone deacetylase 8 (Homo sapiens, UniProt Q9BY41); experiment: Inhibition of human recombinant HDAC8 using [RHKK(Ac)] fluorogenic substrate
T2 sequence (Q9BY41 whole entry): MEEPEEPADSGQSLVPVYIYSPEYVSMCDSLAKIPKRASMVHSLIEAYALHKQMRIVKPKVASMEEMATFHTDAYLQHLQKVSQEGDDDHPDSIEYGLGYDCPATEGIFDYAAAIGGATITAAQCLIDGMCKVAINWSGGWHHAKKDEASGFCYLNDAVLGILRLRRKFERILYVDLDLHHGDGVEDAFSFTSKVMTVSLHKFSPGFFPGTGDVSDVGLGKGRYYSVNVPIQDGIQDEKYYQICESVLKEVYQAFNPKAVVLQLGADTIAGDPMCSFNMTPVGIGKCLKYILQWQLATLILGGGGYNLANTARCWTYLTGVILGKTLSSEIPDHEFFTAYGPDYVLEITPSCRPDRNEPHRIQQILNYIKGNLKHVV

Histone deacetylase 3 = Histone deacetylase 3 (Homo sapiens, UniProt O15379); experiment: Inhibition of human recombinant HDAC3 using [RHKK(Ac)] fluorogenic substrate
Sequence of Histone deacetylase 3 (O15379 whole entry): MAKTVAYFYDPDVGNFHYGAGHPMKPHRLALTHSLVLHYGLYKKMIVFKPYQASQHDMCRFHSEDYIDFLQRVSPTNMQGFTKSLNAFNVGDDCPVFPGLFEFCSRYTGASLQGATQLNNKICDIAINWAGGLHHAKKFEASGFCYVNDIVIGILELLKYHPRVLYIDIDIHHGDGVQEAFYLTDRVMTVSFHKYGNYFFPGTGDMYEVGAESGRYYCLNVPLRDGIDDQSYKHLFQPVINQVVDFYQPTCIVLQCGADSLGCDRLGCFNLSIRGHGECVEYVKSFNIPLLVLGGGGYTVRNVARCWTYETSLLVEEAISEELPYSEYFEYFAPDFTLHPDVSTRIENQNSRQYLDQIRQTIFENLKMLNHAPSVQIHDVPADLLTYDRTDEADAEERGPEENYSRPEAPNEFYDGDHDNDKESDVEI

A 172 [5] = experiment: Induction of cell cycle arrest in human A 172 cells assessed as accumulation at G2/M phase by propidium iodide staining based flow cytometric analysis; type: functional; conditions: dose microM <=10
A 172 [6] = experiment: Induction of cell cycle arrest in human A 172 cells assessed as accumulation at G0/G1 phase by propidium iodide staining based flow cytometric analysis; type: functional; conditions: dose microM <=10
A 172 [7] = experiment: Induction of apoptosis in human A 172 cells assessed as upregulation of activated caspase 3 protein at 3 uM after 24 hrs by western blot analysis; type: functional, cell-based
A 172 [8] = experiment: Induction of apoptosis in human A 172 cells assessed as upregulation of cleaved PARP at 3 uM after 24 hrs by western blot analysis; type: functional, cell-based
A 172 [9] = experiment: Induction of cell cycle arrest in human A 172 cells assessed as sub-G1 population upto 10 uM after 2 days by flow cytometry/PI staining assay; type: functional, cell-based; conditions: dose microM <=10, time 2.0 day
U-87 MG [10] = experiment: Antiproliferation activity against human U-87 MG cells assessed as decrease in cell growth at 30 uM after 3 days by MTT assay; type: functional, U-87MG ATCC; parameters: scale not given: the % may be the effect or the level left; conditions: time 3 day
U-87 MG [11] = experiment: Antiproliferation activity against human U-87 MG cells assessed as decrease in cell growth at 30 uM incubated for 2 days by MTT assay; type: functional, cell-based; conditions: U-87MG ATCC, time 2.0 day
A 172 [12] = experiment: Induction of cell cycle arrest in human A 172 cells assessed as accumulation at S phase upto 10 uM by propidium iodide staining based flow cytometric analysis; type: functional; conditions: dose microM <=10
U-87 MG [13] = experiment: Antiproliferation activity against TMZ resistant human U-87 MG R-50 cells assessed as growth inhibition at 3 uM by MTT assay; type: functional, cell-based; conditions: U-87MG ATCC
Glioblastoma cell line = experiment: Antiproliferation activity against TMZ resistant human glioblastoma cell P1S assessed as growth inhibition at 3 uM by MTT assay; type: functional

pIC50 (U-87 MG [2])	pIC50 (Histone deacetylase 1)	pIC50 [4]	pIC50 (Histone deacetylase 8)	pIC50 (Histone deacetylase 3)	Compound	inhibition at 10 µM (U-87 MG [3]) [%]	other results
–	–	–	–	–	O=C(CCCCCCC(=O)Nc1ccccc1)NO [VORINOSTAT]	–	permeability [1]: 1 10^-5 cm/s
5.62	4.96	7.11	4.82	–	CC12CC3CC(C)(C1)CC(NCc1ccc(NCc4ccc(C(=O)NO)cc4)cc1)(C3)C2	90	–
4.34	–	5.49	5.06	–	CC12CC3CC(C)(C1)CC(NCc1ccc(C(=O)NO)cc1)(C3)C2	–	–
5.02	5.28	6.57	6.15	5.46	CC12CC3CC(C)(C1)CC(NC(=O)CCCCCCCCC(=O)NO)(C3)C2	–	–
5.70	6.02	6.99	5.13	5.99	CC12CC3CC(C)(C1)CC(NS(=O)(=O)c1ccc(/C=C/C(=O)NO)cc1)(C3)C2	90	Activity (A 172 [5]): Dose-Dependent Effect; Activity (A 172 [6]): Dose-Dependent Effect; Activity (A 172 [7]): Active; Activity (A 172 [8]): Active; Activity (A 172 [9]): Active
5.85	6.17	7.22	6.15	6.19	CC12CC3CC(C)(C1)CC(NCc1cccc(NC(=O)CCCCCCC(=O)NO)c1)(C3)C2	90	–
5.66	5.76	7.03	6.25	5.54	CC12CC3CC(C)(C1)CC(NS(=O)(=O)c1cccc(/C=C/C(=O)NO)c1)(C3)C2	90	–
4.63	–	–	–	–	CC12CC3CC(C)(C1)CC(N)(C3)C2.Cl [MEMANTINE HYDROCHLORIDE]	–	Activity (U-87 MG [10]): 50%; Activity (A 172 [5]): 28%; Activity (A 172 [6]): 57%; Activity (A 172 [7]): inactive; Activity (A 172 [8]): inactive; Activity (U-87 MG [11]): inactive; Activity (A 172 [12]): 10%
4.79	4.79	6.69	5.38	–	CC12CC3CC(C)(C1)CC(NC(=O)CCCCCC(=O)NO)(C3)C2	–	–
4.73	5.35	6.44	6.08	4.90	CC12CC3CC(C)(C1)CC(NC(=O)CCCCCCC(=O)NO)(C3)C2	–	–
4.47	5.55	6.64	5.97	5.38	CC12CC3CC(C)(C1)CC(NC(=O)CCCCCCCC(=O)NO)(C3)C2	–	–
5.73	–	7.11	5.99	5.55	CC12CC3CC(C)(C1)CC(NCc1ccc(/C=C/C(=O)NO)cc1)(C3)C2	90	Activity (U-87 MG [13]): inactive; Activity (Glioblastoma cell line): inactive; Activity (A 172 [5]): Dose-Dependent Effect; Activity (A 172 [6]): Dose-Dependent Effect; Activity (A 172 [7]): Active; Activity (A 172 [8]): Active; Activity (A 172 [9]): Active
